Source: patent US10287305B2, “Substituted piperidine compound and use thereof” (Takeda Pharmaceutical Company Limited, priority 2016, dated 2019)
Like-named read-outs stand apart in the source and are kept apart here.

Target: human orexin type 2 receptor (hOX2R) (Homo sapiens (Human), UniProt O43614)
Assay: Measurement of orexin type 2 receptor agonist activity (Experimental Example 2-1, FLIPR TETRA, intracellular Ca2+)
Format: cell-based
Settings: CHO dhfr- cells expressing hOX2R
From the text: To obtain a cell clone stably expressing human orexin type 2 receptor, human orexin type 2 receptor cDNA was inserted into pcDNA3.1(+) plasmid vector (Invitrogen), and a plasmid DNA for expression of human orexin type 2 receptor (pcDNA3.1(+)/hOX2R) was cloned. The plasmid DNA was introduced into CHO-dhfr cell by an electroporation method, and human orexin type 2 receptor expressing clone cells were obtained by limiting dilution method by using G418 drug resistance as a selection marker.
Chinese hamster ovary (CHO) dhfr-cells forcibly expressing human orexin type 2 receptor (hOX2R) were seeded in each well of Black clear bottom plate (384 wells) (Becton, Dickinson and Company) by 10,000 cells, and cultured for 16 hr in an MEM-alpha (Nikken-Bio Co., Ltd.) medium containing 100 U/ml penicillin, 100 μg/ml streptomycin, […] G418 (all above Invitrogen), and 10% fetal calf serum (Thermo), under the conditions of 37° C., 5% CO2. […] A test compound was dissolved in dimethyl sulfoxide to 10 mM, and then diluted with assay buffer 2 (20 mM HEPES, Hanks' balanced salt solution (Invitrogen), 0.1% bovine serum albumin). For the reaction, a test compound solution (10 μL) was added using Fluorescent Imaging Plate Reader TETRA (FLIPR TETRA; manufactured by Molecular Devices), a fluorescence value (excitation wavelength 488 nm, measurement wavelength 570 nm) of each well was measured every one second for 1 min, and the agonist activity was determined using the area of the fluorescence value as an indicator of intracellular Ca^2+ concentration.

[1] = agonist activity, 10 nM human orexin B = 100%
[2] = value at 30 uM concentration, orexin B as full agonist = 100%
[3] = FLIPR TETRA, Fluo-4AM, read-out: Emax (%)

Sequence of human orexin type 2 receptor (hOX2R) (O43614 whole entry): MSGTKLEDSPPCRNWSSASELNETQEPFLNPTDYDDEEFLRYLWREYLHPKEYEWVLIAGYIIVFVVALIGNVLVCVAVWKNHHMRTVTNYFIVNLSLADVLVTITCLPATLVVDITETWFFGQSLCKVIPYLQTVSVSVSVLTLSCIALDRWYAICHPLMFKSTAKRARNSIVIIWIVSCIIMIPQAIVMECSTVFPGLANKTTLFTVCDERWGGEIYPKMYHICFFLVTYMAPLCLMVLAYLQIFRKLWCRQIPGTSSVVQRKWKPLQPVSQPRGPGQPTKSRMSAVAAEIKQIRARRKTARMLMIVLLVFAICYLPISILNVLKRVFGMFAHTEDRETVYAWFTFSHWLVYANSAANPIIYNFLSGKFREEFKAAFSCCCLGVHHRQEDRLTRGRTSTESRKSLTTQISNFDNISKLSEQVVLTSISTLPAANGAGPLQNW

Compound | EC50 [1] | Emax at 30 µM [2] | EC50 (FLIPR TETRA, Fluo-4AM) | Emax [3] | Emax [2]
CC(C)[C@H]1CC[C@@H](OC[C@H]2[C@@H](NS(C)(=O)=O)CCCN2C(=O)Cn2cnccc2=O)CC1 (relative stereo) [Example 93, N-(cis-2-(((cis-4-isopropylcyclohexyl)oxy)methyl)-1-((6-oxopyrimidin-1(6H)-yl)acetyl)piperidin-3-yl)methanesulfonamide] | 2300 nM | 84% |  |  | 
CCCS(=O)(=O)N[C@H]1CCCN(C(C)=O)[C@H]1CO[C@H]1CC[C@@H](C(C)C)CC1 (relative stereo) [Example 77, N-(cis-1-acetyl-2-(((cis-4-isopropylcyclohexyl)oxy)methyl)piperidin-3-yl)propane-1-sulfonamide] | 1000 nM | 91% |  |  | 
CC(=O)N1CCC[C@H](NS(C)(=O)=O)[C@@H]1CO[C@H]1CC[C@@H](c2cccc(C#N)c2)CC1 (relative stereo) [Example 252, N-(cis-1-acetyl-2-(((cis-4-(3-cyanophenyl)cyclohexyl)oxy)methyl)piperidin-3-yl)methanesulfonamide] |  |  | 2900 nM | 93% | 
CS(=O)(=O)N[C@H]1CCCN[C@H]1CO[C@H]1CC[C@@H](c2c(F)cccc2F)CC1 [Example 13, N-((2R,3S)-2-(((cis-4-(2,6-difluorophenyl)cyclohexyl)oxy)methyl)piperidin-3-yl)methanesulfonamide] | 130 nM | 115% |  |  | 
CCNC(=O)N1CCC[C@H](NS(C)(=O)=O)[C@@H]1CO[C@H]1CC[C@@H](C(F)(F)F)CC1 (relative stereo) [Example 107, cis-N-ethyl-3-((methylsulfonyl)amino)-2-(((cis-4-(trifluoromethyl)cyclohexyl)oxy)methyl)piperidine-1-carboxamide] | 120 nM | 75% |  |  | 
CCNC(=O)N1CCC[C@H](NS(C)(=O)=O)[C@@H]1CO[C@H]1CC[C@@H](c2cccc(F)c2)CC1 [Example 148, (2R,3S)-N-ethyl-2-(((cis-4-(3-fluorophenyl)cyclohexyl)oxy)methyl)-3-((methylsulfonyl)amino)piperidine-1-carboxamide] |  |  | 0.053 nM | 103% | 
CC(=O)N1CCC[C@H](NS(C)(=O)=O)[C@@H]1CO[C@H]1CC[C@@H](c2cccc(C(F)(F)F)c2)CC1 (relative stereo) [Example 204, N-(cis-1-acetyl-2-(((cis-4-(3-(trifluoromethyl)phenyl)cyclohexyl)oxy)methyl)piperidin-3-yl)methanesulfonamide] |  |  | 710 nM | 102% | 
COc1cccc([C@H]2CC[C@@H](OC[C@H]3[C@@H](NS(C)(=O)=O)CCCN3C(C)=O)CC2)c1 (relative stereo) [Example 271, N-(cis-1-acetyl-2-(((cis-4-(3-methoxyphenyl)cyclohexyl)oxy)methyl)piperidin-3-yl)methanesulfonamide] |  |  | 650 nM | 104% | 
CC(=O)N1CCC[C@H](NS(C)(=O)=O)[C@@H]1CO[C@H]1CC[C@@H](c2cccc(F)c2F)CC1 [Example 19, N-((2R,3S)-1-acetyl-2-(((cis-4-(2,3-difluorophenyl)cyclohexyl)oxy)methyl)piperidin-3-yl)methanesulfonamide] | 12 nM | 102% |  |  | 
CS(=O)(=O)N[C@H]1CCCN(C(=O)C2CC2)[C@H]1CO[C@H]1CC[C@@H](c2ccccc2OC(F)(F)F)CC1 (relative stereo) [Example 294, N-(cis-1-(cyclopropylcarbonyl)-2-(((cis-4-(2-(trifluoromethoxy)phenyl)cyclohexyl)oxy)methyl)piperidin-3-yl)methanesulfonamide] |  |  | 130 nM | 95% | 
CS(=O)(=O)N[C@H]1CCCN(C(=O)NCC#N)[C@H]1CO[C@H]1CC[C@@H](c2ccccc2)CC1 (relative stereo) [Example 179, cis-N-(cyanomethyl)-3-((methylsulfonyl)amino)-2-(((cis-4-phenylcyclohexyl)oxy)methyl)piperidine-1-carboxamide] |  |  | 0.31 nM | 100% | 
CN(C)S(=O)(=O)N[C@H]1CCCN[C@H]1CO[C@H]1CC[C@@H](c2ccccc2)CC1 (relative stereo) [Example 109, N,N-dimethyl-N′-(cis-2-(((cis-4-phenylcyclohexyl)oxy)methyl)piperidin-3-yl)sulfuric diamide] | 480 nM | 102% |  |  | 
CS(=O)(=O)N[C@H]1CCCN(C(=O)[C@@H]2C[C@@H]2F)[C@H]1COC1CCN(c2ccccc2F)CC1 [Example 221, N-(cis-1-(((1S,2S)-2-fluorocyclopropyl)carbonyl)-2-(((1-(2-fluorophenyl)piperidin-4-yl)oxy)methyl)piperidin-3-yl)methanesulfonamide] |  |  | 1600 nM | 96% | 
COc1ccccc1[C@H]1CC[C@@H](OC[C@H]2[C@@H](NS(C)(=O)=O)CCCN2C(C)=O)CC1 [Example 291, N-((2R,3S)-1-acetyl-2-(((cis-4-(2-methoxyphenyl)cyclohexyl)oxy)methyl)piperidin-3-yl)methanesulfonamide] |  |  | 26 nM | 98% | 
CS(=O)(=O)N[C@H]1CCCN(C(=O)C2CC2)[C@H]1COC1CCC(c2ccccn2)CC1 (relative stereo) [Example 251, N-(cis-1-(cyclopropylcarbonyl)-2-(((4-(pyridin-2-yl)cyclohexyl)oxy)methyl)piperidin-3-yl)methanesulfonamide] |  |  | 240 nM | 98% | 
CC(C)[C@H]1CC[C@@H](OC[C@H]2[C@@H](NS(C)(=O)=O)CCCN2C(=O)COc2ccn(C)n2)CC1 [Example 84, N-((2R,3S)-2-(((cis-4-isopropylcyclohexyl)oxy)methyl)-1-(((1-methyl-1H-pyrazol-3-yl)oxy)acetyl)piperidin-3-yl)methanesulfonamide] | 840 nM | 98% |  |  | 
[2H]C1C([2H])[C@]([2H])(C(C)C)C([2H])C([2H])[C@]1([2H])OC[C@H]1[C@@H](NS(C)(=O)=O)CCCN1C(=O)NCC (stereo partly drawn) [Example 104, cis-N-ethyl-2-(((cis-4-isopropyl(1,2,3,4,5,6-d6)cyclohexyl)oxy)methyl)-3-((methylsulfonyl)amino)piperidine-1-carboxamide] | 2.2 nM | 100% |  |  | 
CC(C)OC(=O)N1CCC[C@H](NS(C)(=O)=O)[C@@H]1CO[C@H]1CC[C@@H](c2cccc(F)c2)CC1 [Example 264, isopropyl (2R,3S)-2-(((cis-4-(3-fluorophenyl)cyclohexyl)oxy)methyl)-3-((methylsulfonyl)amino)piperidine-1-carboxylate] |  |  | 21 nM | 91% | 
CS(=O)(=O)N[C@H]1CCCN(C(=O)CC#N)[C@H]1CO[C@H]1CC[C@@H](c2ccccc2)CC1 [Example 180, N-((2R,3S)-1-(cyanoacetyl)-2-(((cis-4-phenylcyclohexyl)oxy)methyl)piperidin-3-yl)methanesulfonamide] |  |  | 17 nM | 106% | 
COC(=O)N1CCC[C@H](NS(C)(=O)=O)[C@@H]1CO[C@H]1CC[C@@](O)(c2ccccc2)CC1 [Example 331, methyl cis-2-(((trans-4-hydroxy-4-phenylcyclohexyl)oxy)methyl)-3-((methylsulfonyl)amino)piperidine-1-carboxylate] |  |  |  | 98% | 
N-(2-(((cis-4-(3-fluorophenyl)cyclohexyl)oxy)methyl)pyridin-3-yl)methanesulfonamide [Example 15] | 280 nM |  |  |  | 105%
CC(OC(=O)N1CCC[C@H](NS(C)(=O)=O)[C@@H]1COC1CCN(c2ncccn2)CC1)C(F)(F)F (relative stereo) [Example 313, 1,1,1-trifluoropropan-2-yl cis-3-((methylsulfonyl)amino)-2-(((1-(pyrimidin-2-yl)piperidin-4-yl)oxy)methyl)piperidine-1-carboxylate] |  |  | 270 nM | 95% | 
CC1(OC(=O)N2CCC[C@H](NS(C)(=O)=O)[C@@H]2COC2CCN(c3ncccn3)CC2)CC1 (relative stereo) [Example 284, 1-methylcyclopropyl cis-3-((methylsulfonyl)amino)-2-(((1-(pyrimidin-2-yl)piperidin-4-yl)oxy)methyl)piperidine-1-carboxylate] |  |  | 260 nM | 95% | 
CC(C)[C@H]1CC[C@@H](OC[C@H]2[C@@H](NS(C)(=O)=O)CCCN2C(=O)C(C)(C)C)CC1 (relative stereo) [Example 53, N-(cis-1-(2,2-dimethylpropanoyl)-2-(((cis-4-isopropylcyclohexyl)oxy)methyl)piperidin-3-yl)methanesulfonamide] | 980 nM | 96% |  |  | 
CS(=O)(=O)N[C@H]1CCCN(C(=O)Cc2nccs2)[C@H]1CO[C@H]1CC[C@@H](c2ccccc2)CC1 (relative stereo) [Example 157, N-(cis-2-(((cis-4-phenylcyclohexyl)oxy)methyl)-1-(1,3-thiazol-2-ylacetyl)piperidin-3-yl)methanesulfonamide] |  |  | 140 nM | 91% | 
